Read-outs that look alike come from different tables or passages of the source.
Experiments:
giant foxtail [1] = test: Test C pre-/postemergence herbicide test; assay type: in vivo, Setaria faberi
Outline: (§1)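 Visual injury scores run from 0 (no effect) to 100 (complete control), assessed relative to untreated controls 12 to 14 days after treatment in the greenhouse. Chemicals were formulated in a non-phytotoxic solvent mixture with surfactant and applied to soil after planting or to emerged plants at the 1- to 4-leaf stage.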

velvetleaf = test: Test A pre-/postemergence herbicide test; assay type: in vivo, Abutilon theophrasti; settings: Abutilon theophrasti, 240 h; for pest or weed control at 500 g/ha: 500 g ai/ha; for pest or weed control at 2000 g/ha: 2000 g ai/ha
Outline: (§2)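 Pre: seeded sandy loam, directed soil spray, compound in non-phytotoxic solvent + surfactant. Post: 1–2-leaf plants (2–10 cm), sprayed to runoff. Greenhouse ~10 d; visual injury vs untreated, 0–100 scale.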

Surinam grass = test: Test C pre-/postemergence herbicide test; assay type: in vivo, Urochloa decumbens
Outline: as §1

johnsongrass = test: Test C pre-/postemergence herbicide test; assay type: in vivo, Sorghum halepense
Outline: as §1

morningglory = test: Test C pre-/postemergence herbicide test; assay type: in vivo, Ipomoea coccinea
Outline: as §1

redroot pigweed = test: Test A pre-/postemergence herbicide test; assay type: in vivo, Amaranthus retroflexus; settings: Amaranthus retroflexus, 240 h; for pest or weed control at 500 g/ha: 500 g ai/ha; for pest or weed control at 2000 g/ha: 2000 g ai/ha
Outline: as §2

eastern black nightshade = test: Test C pre-/postemergence herbicide test; assay type: in vivo, Solanum ptycanthum
Outline: as §1

cocklebur = test: Test C pre-/postemergence herbicide test; assay type: in vivo, Xanthium strumarium
Outline: as §1

giant foxtail [2] = test: Test A pre-/postemergence herbicide test; assay type: in vivo, Setaria faberi; settings: Setaria faberi, 240 h; for pest or weed control at 500 g/ha: 500 g ai/ha; for pest or weed control at 2000 g/ha: 2000 g ai/ha
Outline: as §2

yellow nutsedge = test: Test C pre-/postemergence herbicide test; assay type: in vivo, Cyperus esculentus
Outline: as §1

ducksalad = test: Test C flooded paddy test; assay type: in vivo, Heteranthera limosa; settings: Heteranthera limosa
barnyardgrass [3] = test: Test C flooded paddy test; assay type: in vivo, Echinochloa crus-galli; settings: Echinochloa crus-galli
Outline: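 Ratings (0 = no effect, 100 = complete control) come from visual comparison with untreated plants after 12 to 14 days in the greenhouse. Treatment was postemergence at the 1- to 4-leaf stage (2–18 cm), or at the 2-leaf stage for the flooded paddy barnyardgrass.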

barnyardgrass [4] = test: Test A pre-/postemergence herbicide test; assay type: in vivo, Echinochloa crus-galli; settings: Echinochloa crus-galli, 240 h; for pest or weed control at 500 g/ha: 500 g ai/ha; for pest or weed control at 2000 g/ha: 2000 g ai/ha
Outline: as §2

[5] = Preemergence, 500 g ai/ha, scale 0 to 100, 0 no effect, 100 complete control
[6] = post-emergence, Postemergence, 0 to 100 scale, 0 no effect, 100 complete control, read-out: Plant response rating, Velvetleaf
[7] = post-emergence, Postemergence, 0 to 100 scale, 0 no effect, 100 complete control, read-out: Plant response rating, Pigweed
[8] = post-emergence, Postemergence, 0 to 100 scale, 0 no effect, 100 complete control, read-out: Plant response rating, Foxtail, Giant
[9] = post-emergence, Postemergence, 0 to 100 scale, 0 no effect, 100 complete control, read-out: Plant response rating, Barnyardgrass

CCn1nc(C(C)(C)C)cc1C(=O)Nc1cc(C(=O)N(C)C)ccc1F [Compound 6, N-[5-[(dimethylamino)carbonyl]-2-fluorophenyl]-3-(1,1-dimethylethyl)-1-ethyl-1H-pyrazole-5-carboxamide]
Plant response rating (0 = no effect, 100 = complete control), Foxtail, Giant (giant foxtail [1]; 62 g ai/ha, preemergence): 60 | Foxtail, Giant plant response rating (giant foxtail [1]; [5]): 100 | pest or weed control at 125 g/ha (giant foxtail [1]; Setaria faberi, pre-emergence, 312 h, 125 g ai/ha, scale 0-100, read-out: Plant response rating, Foxtail, Giant): 80% | pest or weed control at 250 g/ha (giant foxtail [1]; Setaria faberi, pre-emergence, 312 h, 250 g ai/ha, scale 0 to 100 (0 no effect, 100 complete control), visual, 12 to 14 days, read-out: Plant response rating, Foxtail, Giant): 85% | pest or weed control at 500 g/ha (velvetleaf; [6]): 90% | pest or weed control at 2000 g/ha (velvetleaf; [6]): 95% | pest or weed control at 500 g/ha (velvetleaf; pre-emergence, Preemergence, visual rating, 0 to 100 scale (0 no effect, 100 complete control), read-out: Velvetleaf plant response rating): 100% | pest or weed control at 2000 g/ha (velvetleaf; pre-emergence, Preemergence, 0 to 100 scale, 0 no effect, 100 complete control, read-out: Velvetleaf plant response rating): 100% | Plant response rating (0 = no effect, 100 = complete control), Surinam Grass (Surinam grass; 62 g ai/ha, preemergence): 85 | Surinam Grass plant response rating (Surinam grass; [5]): 100 | pest or weed control at 250 g/ha (Surinam grass; Urochloa decumbens, pre-emergence, 312 h, 250 g ai/ha, scale 0 to 100 (0 no effect, 100 complete control), visual, 12 to 14 days, read-out: Plant response rating, Surinam Grass): 100% | Plant response rating (0 = no effect, 100 = complete control), Johnsongrass (johnsongrass; 62 g ai/ha, preemergence): 70 | Johnsongrass plant response rating (johnsongrass; [5]): 100 | pest or weed control at 125 g/ha (johnsongrass; Sorghum halepense, pre-emergence, 125 g ai/ha, scale 0-100, read-out: Plant response rating, Johnsongrass): 90% | pest or weed control at 250 g/ha (johnsongrass; Sorghum halepense, pre-emergence, 250 g ai/ha, scale 0 to 100 (0 no effect, 100 complete control), visual, 12 to 14 days, read-out: Plant response rating, Johnsongrass): 90% | Plant response rating (0 = no effect, 100 = complete control), Morningglory (morningglory; 62 g ai/ha, preemergence): 0 | pest or weed control at 250 g/ha (morningglory; Ipomoea, pre-emergence, 250 g ai/ha, scale 0 to 100 (0 no effect, 100 complete control), visual, 12 to 14 days, read-out: Plant response rating, Morningglory): 30% | Morningglory plant response rating (morningglory; [5]): 70 | pest or weed control at 500 g/ha (redroot pigweed; [7]): 100% | pest or weed control at 2000 g/ha (redroot pigweed; [7]): 100% | pest or weed control at 500 g/ha (redroot pigweed; pre-emergence, Preemergence, visual rating, 0 to 100 scale (0 no effect, 100 complete control), read-out: Pigweed plant response rating): 100% | pest or weed control at 2000 g/ha (redroot pigweed; pre-emergence, Preemergence, 0 to 100 scale, 0 no effect, 100 complete control, read-out: Pigweed plant response rating): 100% | Plant response rating (0 = no effect, 100 = complete control), Nightshade (eastern black nightshade; 62 g ai/ha, preemergence): 100 | Nightshade plant response rating (eastern black nightshade; [5]): 100 | pest or weed control at 250 g/ha (eastern black nightshade; pre-emergence, 250 g ai/ha, scale 0 to 100 (0 no effect, 100 complete control), visual, 12 to 14 days, read-out: Plant response rating, Nightshade): 100% | Plant response rating (0 = no effect, 100 = complete control), Cocklebur (cocklebur; 62 g ai/ha, preemergence): 60 | pest or weed control at 125 g/ha (cocklebur; Xanthium strumarium, pre-emergence, 312 h, 125 g ai/ha, scale 0-100, read-out: Plant response rating, Cocklebur): 100% | pest or weed control at 250 g/ha (cocklebur; Xanthium strumarium, pre-emergence, 312 h, 250 g ai/ha, scale 0 to 100 (0 no effect, 100 complete control), visual, 12 to 14 days, read-out: Plant response rating, Cocklebur): 100% | pest or weed control at 500 g/ha (cocklebur; Xanthium strumarium, pre-emergence, 312 h, Preemergence, 500 g ai/ha, scale 0 to 100, 0 no effect, 100 complete control, read-out: Cocklebur plant response rating): 100% | pest or weed control at 500 g/ha (giant foxtail [2]; [8]): 70% | pest or weed control at 2000 g/ha (giant foxtail [2]; [8]): 70% | pest or weed control at 500 g/ha (giant foxtail [2]; pre-emergence, Preemergence, visual rating, 0 to 100 scale (0 no effect, 100 complete control), read-out: Foxtail, Giant plant response rating): 100% | pest or weed control at 2000 g/ha (giant foxtail [2]; pre-emergence, Preemergence, 0 to 100 scale, 0 no effect, 100 complete control, read-out: Foxtail, Giant plant response rating): 100% | Plant response rating (0 = no effect, 100 = complete control), Nutsedge, Yellow (yellow nutsedge; 62 g ai/ha, preemergence): 50 | pest or weed control at 250 g/ha (yellow nutsedge; Cyperus, pre-emergence, 250 g ai/ha, scale 0 to 100 (0 no effect, 100 complete control), visual, 12 to 14 days, read-out: Plant response rating, Nutsedge, Yellow): 80% | Nutsedge, Yellow plant response rating (yellow nutsedge; [5]): 85 | pest or weed control at 62 g/ha (ducksalad; 62 g ai/ha, scale 0 to 100 (0 no effect, 100 complete control), read-out: Ducksalad plant response rating): 80% | pest or weed control at 125 g/ha (ducksalad; 125 g ai/ha, scale of 0 to 100, 0 is no effect, 100 is complete control, read-out: Ducksalad plant response rating): 90% | pest or weed control at 250 g/ha (ducksalad; 250 g ai/ha, visual rating after 12 to 14 days, scale 0 to 100 (0 no effect, 100 complete control), read-out: Plant response rating, Ducksalad): 90% | pest or weed control at 500 g/ha (ducksalad; 500 g ai/ha, visual rating after 12 to 14 days, scale 0 to 100 (0 no effect, 100 complete control), read-out: Plant response rating, Ducksalad): 100% | pest or weed control at 62 g/ha (barnyardgrass [3]; 62 g ai/ha, scale 0 to 100 (0 no effect, 100 complete control), read-out: Barnyardgrass plant response rating): 60% | pest or weed control at 125 g/ha (barnyardgrass [3]; 125 g ai/ha, scale of 0 to 100, 0 is no effect, 100 is complete control, read-out: Barnyardgrass plant response rating): 90% | pest or weed control at 250 g/ha (barnyardgrass [3]; 250 g ai/ha, visual rating after 12 to 14 days, scale 0 to 100 (0 no effect, 100 complete control), read-out: Plant response rating, Barnyardgrass): 90% | pest or weed control at 500 g/ha (barnyardgrass [3]; 500 g ai/ha, visual rating after 12 to 14 days, scale 0 to 100 (0 no effect, 100 complete control), read-out: Plant response rating, Barnyardgrass): 90% | pest or weed control at 500 g/ha (barnyardgrass [4]; [9]): 80% | pest or weed control at 2000 g/ha (barnyardgrass [4]; [9]): 90% | pest or weed control at 500 g/ha (barnyardgrass [4]; pre-emergence, Preemergence, visual rating, 0 to 100 scale (0 no effect, 100 complete control), read-out: Barnyardgrass plant response rating): 100% | pest or weed control at 2000 g/ha (barnyardgrass [4]; pre-emergence, Preemergence, 0 to 100 scale, 0 no effect, 100 complete control, read-out: Barnyardgrass plant response rating): 100%

Reference: patent US20060069132A1, “Azolecarboxamide herbicides” (priority 2004, published 2006)
